{"source": "patent US12168003B2", "about": "“Selective inhibition of T follicular helper cells for treatment of autoimmune disorders” (priority 2019, dated 2024)", "key": {"[1]": {"test_system": "TH1 and TH17 cells", "assay": "S. aureus sub-dermal ear pinnae infection model", "format": "in vivo, mouse", "procedure": "S. aureus subspecies Rosenbach (ATCC 25923) was grown overnight in TSB broth (Corning). Following quantification, 1×10^8 CFU of S. aureus in 100 μL were injected subdermal in the base of the ear pinnae. On days 0 through 7, mice were treated daily with i.p. 25 mg/kg 4EGI-1 or vehicle. On day 8, mice were euthanized and the whole infected ear was collected along with the cervical lymph node (CLN) and blood. Blood was allowed to clot at room temperature, spun at 2,000×g for 30 minutes, and serum was collected and frozen until analysis. Ear thickness was measured with a digital caliper on day 8.\nSpleens, draining lymph nodes, and brains were dissociated with the plunger-end of a syringe and passed through a 70 μm nylon filter. Splenocytes were subject to RBC lysis with ACK (Ammonium-Chloride-Potassium). Ears were subject to mechanical dissociation with scissors prior to incubation in 1 mL PBS in a 48-well plate with 100 μg/mL Liberase TL and 20 μg/mL DNase I for 1.5 hours at 37° C. Following incubation, cells were further dissociated by passing through a syringe, quenched with PBS+2% FCS, and filtered through a 70 μm nylon filter. Lungs were mechanically dissociated with a razor blade and incubated in a 6 cm dish with 5 mLs RPMI containing 250 μg/mL collagenase, 50 μg/mL Liberase TL, 1 mg/mL hyaluronidase, and 200 μg/mL DNase I for 30 minutes. Following incubation, cells quenched with PBS+2% FCS, and filtered through a 70 μm nylon filter. Ear and lung cells were subject to lymphocyte isolation using a gradient (Lymphocyte Separation Medium; Cellgro). Vertebral columns were flushed with PBS through a 19-gauge needle to remove intact spinal cords. Spinal cords were subject to mechanical dissociation with scissors and incubation in 1 mL PBS with 200 μg/mL DNase I and 50 μg/mL Liberase TL for 30 minutes at 37° C. Following incubation, cells were quenched with PBS+2% FCS and filtered through a 70 μm nylon filter.\nSingle cell suspensions of noted tissues were resuspended in T cell media with 1× PMA/Ionomycin (cell activation cocktail; BioLegend®) and 1× brefeldin A (BioLegend®) for 5-6 hours at 37° C. Following stimulation, cells were incubated with a live/dead viability marker and extracellular stain prior to fix and permeabilization with Fixation/Permeabilization Solution kit (BD Biosciences) according to manufacturer's instructions to detect intracellular cytokines IL-17A, IFN-γ, or IL-13. Concentration and clones of flow cytometry antibodies used for staining detailed in Table 2.\nFor quantification of OVA-specific IgG1, high-binding 96-well plates (Costar) were coated with 10 μg/mL OVA protein. For S. aureus-specific IgG1, plates were coated with heat-killed S. aureus (heat-killed at 80° C. for 30 min). For total IgE, plates were coated with 2 μg/mL rat anti-mouse IgE (Southern Biotech). Following overnight incubation at 4° C., plates were blocked with 1% BSA for 30 min at 37° C. After blocking, serum (diluted 1/20 initially then 1/2 down the plate) was incubated at 37° C. for 2 hours, plates were washed 3 times in PBS and then incubated with 1:1000 anti-mouse IgG1-HRP (Southern Biotech) or anti-mouse IgE-HRP (Southern Biotech) for 1 hour at 37° C. Plates were washed 3 times in PBS and incubated with TMB substrate. Following development, TMB Stop Solution (BioLegend®) was added and plates were read at […]."}, "[2]": {"test_system": "EAE mice", "assay": "Active EAE (MOG33-55/CFA), 4EGI-1 after onset of clinical symptoms", "format": "in vivo, mouse", "procedure": "Ten-week old female mice purchased from Jackson Laboratory were subcutaneously injected at two sites with 100 μL […] emulsified in CFA (Hooke Labs) per flank. On the same day, 6 hours later, and on day 2, mice were injected with 100 ng of pertussis toxin in 200 μL i.p. Mice were monitored daily and scored on a scale of 0-5 where 0, no disease; 1, tail paralysis; 2; hind limb paresis; 3, complete hind limb paralysis; 4, front limb weakness and hind limb paralysis, and 5, moribund state. When stated, mice were either administered 25 mg/kg 4EGI-1 or vehicle i.p. from d 0 to 21 following EAE induction or 75 mg/kg 4EGI-1 or vehicle i.p. from day 12 to 21 following EAE induction and randomization. LFB-H images imported into FIJI underwent color deconvolution to isolate myelin staining. A binary image was generated and % myelination of the spinal cord was calculated. Spinal cords from mice not subjected to EAE were set to 100% and all other samples from the same group were normalized. H&E images imported into FIJI underwent color deconvolution to isolate hematoxylin staining. A binary image was generated and % infiltration of the spinal cord of was calculated. Five-micron sections of paraffin embedded tissue were stained with Akoya Biosciences® Opal™ multiplex automation kit reagents unless stated otherwise. Automated staining was performed on Leica BondRX® autostainer. The protocol was performed according to manufacturers' instructions with primary antibodies to CD19 (Cell Signaling Technology, cat #90176) and CD4 (Cell Signaling Technology, cat #25229). Briefly, all slides underwent sequential epitope retrieval with Leica Biosystems epitope retrieval 2 solution (EDTA based, pH9, Cat. AR9640), primary and secondary antibody incubation and tyramide signal amplification (TSA) with Opal® fluorophores Op690 and Op520. Primary and secondary antibodies were removed during epitope retrieval steps while fluorophores remain covalently attached to the epitope. Semi-automated image acquisition was performed on a Vectra® Polaris multispectral imaging system. After whole slide scanning at 10× the tissue was manually outlined to select fields for multispectral imaging at 20×. Phenochart® software from Akoya Biosciences was used for spectral unmixing of the whole slide scans. Scans were imported into QuPath and representative images were exported into FIJI."}}}
{"smiles": "O=C(O)C(Cc1ccccc1[N+](=O)[O-])=NNc1nc(-c2ccc(Cl)c(Cl)c2)cs1", "note": "(mixture of isomers) [4EGI-1]", "values": [{"measurement": "differentiation or effector function of TH1 cells (T-bet+ or IFN-γ+) in the skin", "setting": "[1]; 25 mg/kg daily i.p., day 8", "value": "no effect"}, {"measurement": "differentiation or effector function of TH17 cells (RORγT+ or IL17A+) in the skin", "setting": "[1]; 25 mg/kg daily i.p., day 8", "value": "no effect"}, {"measurement": "general skin inflammation (ear thickness and skin neutrophil levels)", "setting": "[1]; 25 mg/kg daily i.p., day 8", "value": "no effect"}, {"measurement": "formation of GC B cells in draining lymph nodes", "setting": "[1]; cervical lymph nodes, day 8", "value": "strongly reduced"}, {"measurement": "formation of TFH cells in draining lymph nodes", "setting": "[1]; cervical lymph nodes, day 8", "value": "strongly reduced"}, {"measurement": "secretion of class-switched immunoglobulins", "setting": "[1]; serum S. aureus-specific IgG1, day 8", "value": "strongly reduced"}, {"measurement": "day by which mice entered remission", "setting": "[2]; 75 mg/kg from day 12", "value": "≤ 15", "unit": "days"}, {"measurement": "decrease of CD4+ T cells producing IFN-γ in spinal cord and brain", "setting": "[2]; 75 mg/kg from day 12", "value": 4, "unit": "fold"}, {"measurement": "decrease of CD4+ T cells producing IL-17A in spinal cord and brain", "setting": "[2]; 75 mg/kg from day 12", "value": 4, "unit": "fold"}, {"measurement": "decreased infiltration and retention of CD4+ T cells in brain", "setting": "[2]; 75 mg/kg from day 12", "value": 4, "unit": "fold"}, {"measurement": "time to marked improvement in clinical symptoms after 4EGI-1 administration", "setting": "[2]; 75 mg/kg from day 12", "value": "2 to 3", "unit": "days"}, {"measurement": "spinal cord immune cell infiltration", "setting": "[2]; 75 mg/kg from day 12, H&E", "value": "marked reduction"}, {"measurement": "weight compared to vehicle-treated animals", "setting": "[2]; 75 mg/kg from day 12, day 18", "value": "increased"}, {"measurement": "decreased infiltration and retention of CD4+ T cells in spinal cord", "setting": "[2]; 75 mg/kg from day 12, day 21", "value": 4, "unit": "fold"}, {"measurement": "decreased levels of splenic TFH cells", "setting": "[2]; 75 mg/kg from day 12, day 21", "value": 3, "unit": "fold"}, {"measurement": "demyelination compared to vehicle-treated mice", "setting": "[2]; 75 mg/kg from day 12, day 21", "value": "reduced"}, {"measurement": "myelination regained, relative to normal levels", "setting": "[2]; 75 mg/kg from day 12, day 21, Luxol fast blue", "value": "~90", "unit": "%"}, {"measurement": "ELFs / CD4+ T cell clusters in spinal cord", "setting": "[2]; 75 mg/kg from day 12, immunofluorescence", "value": "smaller clusters"}, {"measurement": "progression of disease", "setting": "[2]; 75 mg/kg from day 12, vs vehicle-treated mice", "value": "inhibited"}]}
